Reference: patent US10906899B2, “Bicyclic fused pyrazole derivatives for the treatment of RSV” (GEORGIA STATE UNIVERSITY RESEARCH FOUNDATION, INC., priority 2016, dated 2021)
Where two headings read alike, the source gives them in different places.

Tested on: RSV
Experiment: Dose-response counterscreen: luciferase reporter virus infection of BEAS-2B cells (EC50)
Format: cell-based, respiratory syncytial virus (RSV)
Details: human respiratory syncytial virus, read-out: Potency Range (EC50 values)
[1] = A series compounds, anti-RSV potency

| Compound | EC50 (B series compounds) [nM] | EC50 [1] [nM] |
| --- | --- | --- |
| COc1cccc(Cn2c(C)c3c(=O)n(-c4cc(Cl)ccn4)n(Cc4ccccc4)c3cc2=O)n1 [AVG-245] | 100 to 1000 | – |
| Cc1cccc2nc(-n3c(=O)c4c(C)n(Cc5cccc(Cl)n5)c(=O)cc4n3Cc3ccccc3)sc12 [AVG-194] | 100 to 1000 | – |
| Cc1c2c(=O)n(-c3ccccn3)n(CC3CCOCC3)c2cc(=O)n1Cc1ccc(Cl)cc1 [AVG-079] | > 20000 | – |
| Cc1c2c(=O)n(-c3ccccn3)n(Cc3ccccc3)c2cc(=O)n1Cc1ccccc1F [AVG-130] | 100 to 1000 | – |
| COc1ccc(C2CC(=O)Nc3[nH]ncc32)cc1OC1CCCC1 (stereo not shown) [AVG-069, 4-(3-(cyclopentyloxy)-4-methoxyphenyl)-4,5-dihydro-1H-pyrazolo[3,4-b]pyridin-6(7H)-one] | – | > 20000 |
| Cc1c2c(=O)n(-c3nc4ccccc4s3)n(Cc3ccccc3)c2cc(=O)n1Cc1cccc(Cl)c1 [AVG-077] | 100 to 1000 | – |
| COc1cc(C2CC(=O)Nc3c2cnn3-c2ccccn2)ccc1OC1CCCC1 (stereo not shown) [AVG-180] | – | 10000 to 20000 |
| Cc1c2c(=O)n(-c3nc4ccccc4s3)n(Cc3ccccc3)c2cc(=O)n1Cc1cccnn1 [AVG-091] | 1000 to 10000 | – |
| Cc1c2c(=O)n(-c3nc4ccccc4s3)n(Cc3cnco3)c2cc(=O)n1Cc1ccco1 [AVG-126] | 1000 to 10000 | – |
| Cc1c2c(=O)n(-c3nc4ccccc4s3)n(Cc3ccccc3)c2cc(=O)n1Cc1ccn[nH]1 [AVG-101] | 1000 to 10000 | – |
| COc1ccccc1Cn1c(C)c2c(=O)n(-c3ccccn3)n(Cc3ccccc3)c2cc1=O [AVG-133] | 100 to 1000 | – |
| Cc1c2c(=O)n(-c3nc4ccccc4s3)n(Cc3ccccc3)c2cc(=O)n1Cc1cccc(OCCCN(C)C)n1 [AVG-207] | 1000 to 10000 | – |
| COc1ccc2nc(-n3c(=O)c4c(C)n(Cc5cccc(Cl)n5)c(=O)cc4n3Cc3ccccc3)sc2c1 [AVG-189] | 10 to 100 | – |
| Cc1c2c(=O)n(-c3nc4ccccc4s3)n(Cc3ccccc3)c2cc(=O)n1Cc1ccccn1 [AVG-036] | 100 to 1000 | – |
| CCOc1cccc(Cn2c(C)c3c(=O)n(-c4nc5ccccc5s4)n(Cc4ccccc4)c3cc2=O)n1 [AVG-204] | 100 to 1000 | – |
| Cc1c2c(=O)n(-c3nc4ccc(Cl)cc4s3)n(Cc3ccccc3)c2cc(=O)n1Cc1cccc(Cl)n1 [AVG-185] | 100 to 1000 | – |
| Cc1c2c(=O)n(-c3nc4ccccc4s3)n(Cc3ccccc3)c2cc(=O)n1Cc1ncccn1 [AVG-090] | 10000 to 20000 | – |
| Cc1c2c(=O)n(-c3nc4ccncc4s3)n(Cc3ccccc3)c2cc(=O)n1Cc1cccc(Cl)n1 [AVG-197] | 10 to 100 | – |
| Cc1c2c(=O)n(-c3nc4ccccc4s3)n(CC3CCCCO3)c2cc(=O)n1Cc1ccco1 (stereo not shown) [AVG-073] | 1000 to 10000 | – |
| COc1ccc(Cn2ncc3c2NC(=O)CC3c2ccc(OC3CCCC3)c(OC)c2)c(OC)c1 (stereo not shown) [AVG-181] | – | 1000 to 10000 |
| Cc1c2c(=O)n(-c3ccccc3)n(Cc3ccccc3)c2cc(=O)n1Cc1ccccn1 [AVG-107] | 1000 to 10000 | – |
| Cc1c2c(=O)n(-c3nc4ccccc4s3)n(Cc3ccccc3)c2cc(=O)n1CC1CCOC1 (stereo not shown) [AVG-075] | 1000 to 10000 | – |
| COc1ccc(Cn2c3cc(=O)n(Cc4cccc(OC(C)C)n4)c(C)c3c(=O)n2-c2ccccn2)cc1 [AVG-254] | 100 to 1000 | – |
| Cc1c2c(=O)n(-c3nc4ccccc4s3)n(Cc3ccccc3)c2cc(=O)n1CC1CCN(C)CC1 [AVG-039] | 10000 to 20000 | – |
| Cc1c2c(=O)n(-c3nc4ccccc4s3)n(Cc3ccoc3)c2cc(=O)n1Cc1ccco1 [AVG-123] | 10000 to 20000 | – |
| COc1ccc(C2CC(=O)Nc3nn(-c4ccccc4)cc32)cc1OC1CCCC1 (stereo not shown) [AVG-065b] | – | 1000 to 10000 |

| Compound | EC50 (B series compounds) [nM] | EC50 [1] [nM] |
| --- | --- | --- |
| Cc1c2c(=O)n(-c3ccccn3)n(Cc3ccc(OC(C)C)cc3)c2cc(=O)n1Cc1cccc(Cl)n1 [AVG-234] | 100 to 1000 | – |
| Cc1c2c(=O)n(-c3nc4ccccc4s3)n(Cc3ccccc3)c2cc(=O)n1Cc1ccc(Cl)c(Cl)n1 [AVG-168] | 100 to 1000 | – |
| Cc1c2c(=O)n(-c3nc4ccccc4s3)n(C)c2cc(=O)n1Cc1ccco1 [AVG-023] | > 20000 | – |
| Cc1c2c(=O)n(-c3nc4ccccc4s3)n(Cc3ccccn3)c2cc(=O)n1Cc1ccco1 [AVG-119] | 1000 to 10000 | – |
| Cc1c2c(=O)n(-c3nc4ncccc4s3)n(Cc3ccccc3)c2cc(=O)n1Cc1cccc(Cl)n1 [AVG-195] | 10 to 100 | – |
| Cc1c2c(=O)n(-c3nc4ccccc4s3)n(Cc3ccccc3)c2cc(=O)n1CC1CCC(=O)N1C (stereo not shown) [AVG-212] | 10000 to 20000 | – |
| COc1cc(C2CC(=O)Nc3nn(-c4ccccn4)cc32)ccc1OC1CCCC1 (stereo not shown) [AVG-180b] | – | 10000 to 20000 |
| Cc1c2c(=O)n(-c3nc4ccccc4s3)n(Cc3ccccc3)c2cc(=O)n1Cc1cccc(Cl)n1 [AVG-094] | 100 to 1000 | – |
| Cc1c2c(=O)n(-c3nc4ccccc4s3)n(Cc3ccc(Cl)cc3)c2cc(=O)n1Cc1cccc(Cl)n1 [AVG-173] | 100 to 1000 | – |
| Cc1c2c(=O)n(-c3nc4ccccc4s3)n(Cc3ccccc3)c2cc(=O)n1Cc1cccnc1 [AVG-088] | 1000 to 10000 | – |
| CC(C)c1c2c(=O)n(-c3nc4ccccc4s3)n(Cc3ccccc3)c2cc(=O)n1Cc1cccc(Cl)n1 [AVG-166] | 1000 to 10000 | – |
| COc1cccc(Cn2c(C)c3c(=O)n(-c4nc5ccccc5s4)n(Cc4ccccc4)c3cc2=O)n1 [AVG-158] | 100 to 1000 | – |
| Cc1c2c(=O)n(-c3nc4ccccc4s3)n(Cc3ccccc3)c2cc(=O)n1C1CCNCC1 [AVG-041] | 1000 to 10000 | – |
| Cc1c2c(=O)n(-c3nc4ccccc4s3)n(Cc3ccccc3)c2cc(=O)n1Cc1cccc(OC(C)C)n1 [AVG-205] | 100 to 1000 | – |
| COc1ccc(-c2cc(=O)[nH]c3c2cnn3-c2ccccc2)cc1OC1CCCC1 [AVG-067, 4-(3-(cyclopentyloxy)-4-methoxyphenyl)-1-phenyl-1H-pyrazolo[3,4-b]pyridine-6(7H)-one] | – | > 20000 |
| Cc1c2c(=O)n(-c3nc4ccccc4s3)n(Cc3ccccc3)c2cc(=O)n1CC1CCOCC1 [AVG-040] | 1000 to 10000 | – |
| COc1cccc(Cn2c(C)c3c(=O)n(-c4ccccn4)n(Cc4ccc(OC(C)C)cc4)c3cc2=O)n1 [AVG-253] | 100 to 1000 | – |
| Cc1c2c(=O)n(-c3ccccn3)n(Cc3ccccc3)c2cc(=O)n1Cc1cccc(F)c1 [AVG-131] | 100 to 1000 | – |
| Cc1c2c(=O)n(-c3ccncc3)n(Cc3ccccc3)c2cc(=O)n1Cc1ccco1 [AVG-082] | 1000 to 10000 | – |
| Cc1c2c(=O)n(-c3cc4ccccc4cn3)n(Cc3ccccc3)c2cc(=O)n1Cc1ccco1 [AVG-034] | 1000 to 10000 | – |
| Cc1c2c(=O)n(-c3nc4cnccc4s3)n(Cc3ccccc3)c2cc(=O)n1Cc1cccc(Cl)n1 [AVG-196] | 10000 to 20000 | – |
| Cc1c2c(=O)n(-c3nc4ccccc4s3)n(CC3CCOCC3)c2cc(=O)n1Cc1ccco1 [AVG-025] | 1000 to 10000 | – |
| Cc1c2c(=O)n(-c3ccccn3)n(Cc3ccccc3)c2cc(=O)n1Cc1ccc(F)cc1 [AVG-129] | 100 to 1000 | – |
| COc1cc(C2CC(=O)Nc3[nH]ncc32)ccc1OC1CCCC1 (stereo not shown) [AVG-179] | – | > 20000 |
| Cc1c2c(=O)n(-c3ccccn3)n(Cc3ccccc3)c2cc(=O)n1Cc1cccc(Cl)c1 [AVG-128] | 100 to 1000 | – |
| Cc1c2c(=O)n(-c3nc4ccccc4s3)n(CC3CCN(C)CC3)c2cc(=O)n1Cc1ccco1 [AVG-027] | 10000 to 20000 | – |

| Compound | EC50 (B series compounds) [nM] | EC50 [1] [nM] |
| --- | --- | --- |
| Cc1c2c(=O)n(-c3nc4ccccc4s3)n(Cc3ccccc3)c2cc(=O)n1Cc1c[nH]cn1 [AVG-099] | 1000 to 10000 | – |
| Cc1c2c(=O)n(-c3nc4ccccc4s3)n(Cc3ccccc3)c2cc(=O)n1Cc1cccc(F)n1 [AVG-214] | 100 to 1000 | – |
| Cc1cccc(Cn2c(C)c3c(=O)n(-c4nc5ccccc5s4)n(Cc4ccccc4)c3cc2=O)n1 [AVG-157] | 100 to 1000 | – |
| Cc1c2c(=O)n(-c3ccccn3)n(Cc3ccccc3)c2cc(=O)n1Cc1nc(Cl)cs1 [AVG-252] | 100 to 1000 | – |
| COc1cccc(Cn2c3cc(=O)n(Cc4cccc(Cl)n4)c(C)c3c(=O)n2-c2nc3ccccc3s2)c1 [AVG-177] | 100 to 1000 | – |
| Cc1c2c(=O)n(-c3nc4ccccc4s3)n(Cc3ccccc3)c2cc(=O)n1C(C)c1cccc(Cl)n1 (stereo not shown) [AVG-170] | 1000 to 10000 | – |
| Cc1c2c(=O)n(-c3nc4ccccc4s3)n(C)c2cc(=O)n1Cc1ccccn1 [AVG-037] | > 20000 | – |
| Cc1c2c(=O)n(-c3nc4ccccc4s3)n(CC3CCCC3)c2cc(=O)n1Cc1ccco1 [AVG-071] | 1000 to 10000 | – |
| COc1cccc(Cn2c(C)c3c(=O)n(-c4ccccn4)n(Cc4ccccc4)c3cc2=O)n1 [AVG-203] | 10 to 100 | – |
| Cc1c2c(=O)n(-c3ccccc3)n(Cc3ccccc3)c2cc(=O)n1Cc1ccco1 [AVG-080] | 1000 to 10000 | – |
| COc1ccc(Cn2c(=O)c3c(C)n(Cc4ccccn4)c(=O)cc3n2Cc2ccccc2)cc1 [AVG-199] | 10000 to 20000 | – |
| Cc1c2c(=O)n(-c3nc4ccccc4s3)n(Cc3ccccc3)c2cc(=O)n1Cc1cccc(C(C)C)n1 [AVG-159] | 10 to 100 | – |
| Cc1c2c(=O)n(-c3ccccn3)n(Cc3ccccc3)c2cc(=O)n1Cc1ccc(Cl)cc1 [AVG-078] | 100 to 1000 | – |
| Cc1c2c(=O)n(-c3nc4ccccc4s3)n(Cc3ccccc3)c2cc(=O)n1CC1CCC(=O)N1 (stereo not shown) [AVG-213] | 1000 to 10000 | – |
| Cc1c2c(=O)n(-c3nc4ccccc4s3)n(Cc3ccccc3)c2cc(=O)n1Cc1ccco1 [AVG-021, 2-(benzo[d]thiazol-2-yl)-1-benzyl-5-(furan-2-ylmethyl)-4-methyl-1H-pyrazolo[4,3-c] pyridine-3,6(2H,5H)-dione] | 1000 to 10000 | – |
| Cc1c2c(=O)n(-c3ccccn3)n(Cc3ccccc3)c2cc(=O)n1Cc1cccc(OC(C)C)n1 [AVG-230] | 100 to 1000 | – |
| Cc1c2c(=O)n(-c3nc4ccccc4s3)n(Cc3ncco3)c2cc(=O)n1Cc1ccco1 [AVG-124] | 1000 to 10000 | – |
| Cc1c2c(=O)n(-c3nc4ccccc4s3)n(Cc3ccccc3)c2cc(=O)n1CC1CCCC(=O)N1 (stereo not shown) [AVG-210] | 10000 to 20000 | – |
| COc1cccc2sc(-n3c(=O)c4c(C)n(Cc5cccc(Cl)n5)c(=O)cc4n3Cc3ccccc3)nc12 [AVG-187] | 100 to 1000 | – |
| Cc1c2c(=O)n(-c3ccccn3)n(Cc3ccccc3)c2cc(=O)n1Cc1cccc(Cl)n1 [AVG-171] | 10 to 100 | – |
| Cc1c2c(=O)n(-c3nc4ccccc4s3)n(Cc3ccccc3)c2cc(=O)n1Cc1cncc(Cl)n1 [AVG-162] | 10000 to 20000 | – |
| CCc1c2c(=O)n(-c3nc4ccccc4s3)n(Cc3ccccc3)c2cc(=O)n1Cc1cccc(Cl)n1 [AVG-165] | 1000 to 10000 | – |
| Cc1c2c(=O)n(-c3nc4ccccc4s3)n(Cc3ccccc3)c2cc(=O)n1Cc1ncc[nH]1 [AVG-097] | 1000 to 10000 | – |
| Cc1ccc2nc(-n3c(=O)c4c(C)n(Cc5cccc(Cl)n5)c(=O)cc4n3Cc3ccccc3)sc2c1 [AVG-193] | 100 to 1000 | – |
